According to ChEMBL document CHEMBL1144371, “Design, synthesis, and biological evaluation of novel 4-hydroxypyrone derivatives as HIV-1 protease inhibitors” (Bioorg Med Chem Lett, 2005):

Tests used:
[1] = tested on: CCRF-CEM; assay: Effective concentration required to protect CEM cells from […] immunodeficiency virus (SIV) infection; type: functional, cell-based
[2] = tested on: CCRF-CEM; assay: Ratio of toxic concentration (TC50) to the effective concentration (EC50) (Therapeutic Index) in CEM cells; type: functional, Homo sapiens
[3] = target: T1, Human immunodeficiency virus type 1 protease (Human immunodeficiency virus 1, UniProt Q72874); assay: Effective concentration required to inhibit human immunodeficiency virus 1 protease in MT-4 cells; type: cell-based, MT4
[4] = target: T1, Human immunodeficiency virus type 1 protease; assay: Inhibitory concentration against human immunodeficiency virus 1 protease in MT-4 cells; type: cell-based, MT4

Row | Compound | EC50 [1] [µM] | EC50 [3] [µM] | IC50 [4] [µM] | TI [2]
1 | CCc1ccccc1SC1=C(O)OC2(CCC(C(C)(C)C)CC2)CC1=O (stereo not drawn) | 8.1 |  |  | 3
2 | CCCC1(CCc2ccccc2)CC(=O)C(Sc2ccccc2)=C(O)O1 (stereo not drawn) | 4.6 |  |  | >22
3 | Cc1ccccc1SC1=C(O)OC2(CCC(C(C)(C)C)CC2)CC1=O (stereo not drawn) | 6.7 |  |  | 8
4 | Cc1ccccc1SC1=C(O)OC(COc2ccccc2)(c2ccccc2)CC1=O (stereo not drawn) | 8.2 |  |  | >12
5 | Cc1ccc(C)c(SC2=C(O)OC3(CCC(C(C)(C)C)CC3)CC2=O)c1 (stereo not drawn) | 8.3 |  |  | >12
6 | Cc1ccc(C(C)(C)C)c(SC2=C(O)OC(CCc3ccccc3)(C(C)C)CC2=O)c1 (stereo not drawn) |  | 15 | 0.0011 | 
7 | O=C1CC(COc2ccccc2)(c2ccccc2)OC(O)=C1Sc1ccccc1 (stereo not drawn) | 13 |  |  | 2
8 | O=C1CC2(CCCCC2)OC(O)=C1Sc1ccccc1 | 12.3 |  |  | 4
9 | Cc1ccc(C)c(SC2=C(O)OC(COc3ccccc3)(c3ccccc3)CC2=O)c1 (stereo not drawn) | 9.2 |  |  | 5
10 | CCCC1(CCc2ccccc2)CC(=O)C(C(CC)c2ccccc2)=C(O)O1 (stereo not drawn) |  |  | 0.035 | 
11 | CCc1ccccc1SC1=C(O)OC(COc2ccccc2)(c2ccccc2)CC1=O (stereo not drawn) | 5.6 |  |  | 8
12 | CC(C)(C)C1CCC2(CC1)CC(=O)C(Sc1ccccc1)=C(O)O2 (stereo not drawn) | > 5 |  |  | 1
13 | CCCC1(Cc2cccc3ccccc23)CC(=O)C(Sc2ccccc2)=C(O)O1 (stereo not drawn) | 4.3 |  |  | 13
14 | CCC(c1ccccc1)c1c(O)c2ccccc2oc1=O (stereo not drawn) [PHENPROCOUMON] |  |  | 1 | 
15 | CCCC1(Cc2cccc3ccccc23)CC(=O)C(Sc2cc(C)ccc2C)=C(O)O1 (stereo not drawn) | 4.6 |  |  | 11

Continued, in another order:

Row | EC50 [1] [µM] | EC50 [3] [µM] | IC50 [4] [µM] | Compound | TI [2]
16 | 3.3 |  |  | Cc1ccccc1SC1=C(O)OC2(CCCCC2)CC1=O | >30
17 | 3.6 |  |  | Cc1ccc(C)c(SC2=C(O)OC3(CCCCC3)CC2=O)c1 | >28
18 | 1.7 | 1.7 |  | CCCC1(Cc2cccc3ccccc23)CC(=O)C(Sc2ccccc2CC)=C(O)O1 (stereo not drawn) | 46
19 | 1.8 |  |  | CCCC1(Cc2ccc3ccccc3c2)CC(=O)C(Sc2ccccc2CC)=C(O)O1 (stereo not drawn) | 34
20 | 3.2 |  |  | CCCC1(Cc2ccc3ccccc3c2)CC(=O)C(Sc2ccccc2)=C(O)O1 (stereo not drawn) | 10
21 | 4.3 |  |  | CCCC1(CCc2ccccc2)CC(=O)C(Sc2cc(C)ccc2C)=C(O)O1 (stereo not drawn) | >23
22 | 2 |  |  | CCCC1(Cc2ccc3ccccc3c2)CC(=O)C(Sc2ccccc2C)=C(O)O1 (stereo not drawn) | 17
23 | 4 |  |  | CCCC1(Cc2ccc3ccccc3c2)CC(=O)C(Sc2cc(C)ccc2C)=C(O)O1 (stereo not drawn) | 10
24 | 4.1 |  |  | CCCC1(CCc2ccccc2)CC(=O)C(Sc2ccccc2CC)=C(O)O1 (stereo not drawn) | >24
25 | 3.7 |  |  | CCCC1(CCc2ccccc2)CC(=O)C(Sc2ccccc2C)=C(O)O1 (stereo not drawn) | >27
26 | 3.8 |  |  | CCCC1(Cc2cccc3ccccc23)CC(=O)C(Sc2ccccc2C)=C(O)O1 (stereo not drawn) | >26
27 | 3.9 |  |  | CCc1ccccc1SC1=C(O)OC2(CCCCC2)CC1=O | >26
